Test: Phase I study NCT02841540: treatment-related adverse events and dose-limiting toxicities
Type: in vivo, human
From the text: Patients were enrolled using a conventional 3+3 dose escalation phase I design, with escalations based on a modified Fibonacci sequence scheme (Storer Biometrics. 1989;45(3):925-937). Dose escalations continued until a dose level at which ≥2 patients of the 3-6 enrolled experienced a dose-limiting toxicity (DLT). Maximally tolerated dose (MTD) was defined as the highest dose at which no more than 1 out of 6 patients experienced a DLT. DLTs were defined as any of the following: any Grade 3 or greater study drug-related non-hematologic toxicity except for Grade 3 nausea, vomiting, fatigue, or diarrhea that resolved to Grade 1 or less within 1 week; failure to administer at least 70% of the protocol-specific dose; or prolonged myelosuppression with the persistence of Grade 4 cytopenia in the absence of persistent leukemia or blast increase 21 or more days after suspending dosing. DLTs were assessed during the first 28 days using National Cancer Institute (NCI) Common Toxicity Criteria for Adverse Events (CTCAE) version 4.03.
The primary endpoints measured included occurrence of DLTs, the type and frequency of treatment-emergent adverse events (TEAEs), and serious adverse events (SAEs). Key secondary endpoints included drug pharmacokinetics (PK) and preliminary antitumor activity, such as the overall response rate (ORR), effect of drug therapy on transfusion requirements, and overall survival (OS). Biomarker analyses and drug pharmacodynamics (PD) were included as exploratory endpoints. […] In addition, a second schedule (Schedule II) of 21 days on therapy and a rest of 7 days without therapy was explored. […] However, when limited clinical activity was observed on Schedule I, Schedule II was introduced to test whether more prolonged spliceosome modulation would lead to higher clinical activity. Each treatment cycle was 28 days in length. Patients could continue treatment until disease progression or development of unacceptable toxicity.
Eligibility criteria included normal vitamin A levels and visual acuity that corrected to 20/40 unless a cataract was present. Ophthalmologic evaluation, including fundoscopic imaging and visual evoked potentials, was performed during study screening and periodically throughout the duration of the trial.

[1] = Schedule I, 1, 2, 3.5, & 5 mg QD, N = 25

## C/C(=C\C=C\[C@@H](C)c1ccccn1)[C@H]1OC(=O)C[C@H](O)CC[C@@](C)(O)[C@@H](OC(=O)N2CCN(C)CC2)/C=C/[C@@H]1C [Compound 1, (2S,3S,4E,6S,7R,10R)-7,10-dihydroxy-3,7-dimethyl-12-oxo-2-[(2E,4E,6R)-6-(pyridine-2-yl)hepta-2,4-dien-2-yl]oxacyclododec-4-en-6-yl-4-methylpiperazine-1-carboxylate]
7 mg, Schedule I, first week of study therapy
  adverse event in a patient with SF3B1-mutant lower-risk MDS: developed pancytopenia and marrow aplasia
9 of the 12 subjects
  male share of subjects who reported grade 3 treatment related AEs: 75%
45 of the 63 subjects
  male share of subjects reporting treatment related AEs (all grades): 71%
Schedule I
  MTD (initially defined, not formally confirmed): 30 mg
  recommended QD dose: 30 mg per day
Schedule I, 1 mg-40 mg
  dose dependency in the rate of treatment related TEAEs (all grades): no obvious dose dependency
Schedule I, 7 mg QD, N = 14
  Any TEAE (treatment-related, all grades): 11 (79) n (%)
  Diarrhea (treatment-related TEAE, all grades): 4 (29) n (%)
  Fatigue (treatment-related TEAE, all grades): 2 (14) n (%)
  Nausea (treatment-related TEAE, all grades): 4 (29) n (%)
  Vomiting (treatment-related TEAE, all grades): 2 (14) n (%)
Schedule I, 7 mg, lower-risk MDS and SF3B1 mutation
  patients with DLT marrow aplasia: 1 patient
Schedule I, 10 mg QD, N = 7
  Any TEAE (treatment-related, all grades): 3 (43) n (%)
  Diarrhea (treatment-related TEAE, all grades): 2 (29) n (%)
  Fatigue (treatment-related TEAE, all grades): 1 (14) n (%)
  Nausea (treatment-related TEAE, all grades): 2 (29) n (%)
  Vomiting (treatment-related TEAE, all grades): 2 (29) n (%)
Schedule I, 14 mg QD, N = 5
  Any TEAE (treatment-related, all grades): 5 (100) n (%)
  Diarrhea (treatment-related TEAE, all grades): 5 (100) n (%)
  Fatigue (treatment-related TEAE, all grades): 0 n (%)
  Nausea (treatment-related TEAE, all grades): 1 (20) n (%)
  Vomiting (treatment-related TEAE, all grades): 1 (20) n (%)
Schedule I, 20 mg QD, N = 4
  Any TEAE (treatment-related, all grades): 3 (75) n (%)
  Diarrhea (treatment-related TEAE, all grades): 1 (25) n (%)
  Fatigue (treatment-related TEAE, all grades): 2 (50) n (%)
  Nausea (treatment-related TEAE, all grades): 2 (50) n (%)
  Vomiting (treatment-related TEAE, all grades): 0 n (%)
Schedule I, 30 mg QD, N = 4
  Any TEAE (treatment-related, all grades): 4 (100) n (%)
  Diarrhea (treatment-related TEAE, all grades): 3 (75) n (%)
  Fatigue (treatment-related TEAE, all grades): 1 (25) n (%)
  Nausea (treatment-related TEAE, all grades): 3 (75) n (%)
  Vomiting (treatment-related TEAE, all grades): 0 n (%)
Schedule I, 40 mg
  patients with DLT prolonged QTcF >500 msec (investigator-assessed): 2 out of 6
  subjects reporting grade 3 AEs: 3 of 6
Schedule I, 40 mg QD, N = 6
  Any TEAE (treatment-related, all grades): 5 (83) n (%)
  Diarrhea (treatment-related TEAE, all grades): 5 (83) n (%)
  Fatigue (treatment-related TEAE, all grades): 2 (33) n (%)
  Nausea (treatment-related TEAE, all grades): 3 (50) n (%)
  Vomiting (treatment-related TEAE, all grades): 3 (50) n (%)
Schedule I, 40 mg, N=6
  subjects reporting a treatment related TEAE: 83%
[1]
  Any TEAE (treatment-related, all grades): 19 (76) n (%)
  Diarrhea (treatment-related TEAE, all grades): 7 (28) n (%)
  Fatigue (treatment-related TEAE, all grades): 3 (12) n (%)
  Nausea (treatment-related TEAE, all grades): 3 (12) n (%)
  Vomiting (treatment-related TEAE, all grades): 1 (4) n (%)
Schedule I, N = 65
  Anemia (Grade 3 or 4 treatment-related TEAE): 4 (6) n (%)
  ECG QTcF prolonged (Grade 3 or 4 treatment-related TEAE): 2 (3) n (%)
  Fatigue (Grade 3 or 4 treatment-related TEAE): 2 (3) n (%)
  Hypophosphatemia (Grade 3 or 4 treatment-related TEAE): 0 n (%)
  Nausea (Grade 3 or 4 treatment-related TEAE): 0 n (%)
  Platelet count decreased (Grade 3 or 4 treatment-related TEAE): 2 (3) n (%)
  Sinus bradycardia (Grade 3 or 4 treatment-related TEAE): 0 n (%)
Schedule I, Total, N = 65
  Any TEAE (treatment-related, all grades): 50 (77) n (%)
  Diarrhea (treatment-related TEAE, all grades): 27 (42) n (%)
  Fatigue (treatment-related TEAE, all grades): 11 (17) n (%)
  Nausea (treatment-related TEAE, all grades): 18 (28) n (%)
  Vomiting (treatment-related TEAE, all grades): 9 (14) n (%)
Schedule I, all patients
  diarrhea, treatment-related TEAE: 42%
  fatigue, treatment-related TEAE: 17%
  nausea, treatment-related TEAE: 28%
  vomiting, treatment-related TEAE: 14%
Schedule I, lowest combined dose level (1, 2, 3.5 and 5 mg, N=25)
  subjects reporting a treatment related TEAE: 76%
Schedule II
  MTD (initially defined, not formally confirmed): 14 mg
  recommended QD dose: 14 mg per day
Schedule II, 7 mg QD, N = 5
  Any TEAE (treatment-related, all grades): 1 (20) n (%)
  Diarrhea (treatment-related TEAE, all grades): 1 (20) n (%)
  Dysgeusia (treatment-related TEAE, all grades): 0 n (%)
  ECG QTcF prolonged (treatment-related TEAE, all grades): 0 n (%)
  Fatigue (treatment-related TEAE, all grades): 0 n (%)
  Hypophosphatemia (treatment-related TEAE, all grades): 0 n (%)
  Nausea (treatment-related TEAE, all grades): 0 n (%)
  Vomiting (treatment-related TEAE, all grades): 0 n (%)
Schedule II, 7 mg-20 mg
  dose dependency of treatment related AEs: dose dependency trend
Schedule II, 12 mg QD, N = 5
  Any TEAE (treatment-related, all grades): 4 (80) n (%)
  Diarrhea (treatment-related TEAE, all grades): 1 (20) n (%)
  Dysgeusia (treatment-related TEAE, all grades): 1 (20) n (%)
  ECG QTcF prolonged (treatment-related TEAE, all grades): 0 n (%)
  Fatigue (treatment-related TEAE, all grades): 1 (20) n (%)
  Hypophosphatemia (treatment-related TEAE, all grades): 2 (40) n (%)
  Nausea (treatment-related TEAE, all grades): 1 (20) n (%)
  Vomiting (treatment-related TEAE, all grades): 0 n (%)
Schedule II, 14 mg
  patients with DLT grade 3 sinus bradycardia: 1 of 5
Schedule II, 14 mg QD, N = 5
  Any TEAE (treatment-related, all grades): 4 (80) n (%)
  Diarrhea (treatment-related TEAE, all grades): 2 (40) n (%)
  Dysgeusia (treatment-related TEAE, all grades): 0 n (%)
  ECG QTcF prolonged (treatment-related TEAE, all grades): 1 (20) n (%)
  Fatigue (treatment-related TEAE, all grades): 0 n (%)
  Hypophosphatemia (treatment-related TEAE, all grades): 0 n (%)
  Nausea (treatment-related TEAE, all grades): 0 n (%)
  Vomiting (treatment-related TEAE, all grades): 1 (20) n (%)
Schedule II, 20 mg
  patients with DLTs (Grade 3 QTc prolongation; Grade 3 nausea): 2 of 4
  subjects reporting grade 3 AEs: 3 of the 4
Schedule II, 20 mg QD, N = 4
  Any TEAE (treatment-related, all grades): 4 (100) n (%)
  Diarrhea (treatment-related TEAE, all grades): 4 (100) n (%)
  Dysgeusia (treatment-related TEAE, all grades): 1 (25) n (%)
  ECG QTcF prolonged (treatment-related TEAE, all grades): 2 (50) n (%)
  Fatigue (treatment-related TEAE, all grades): 1 (25) n (%)
  Hypophosphatemia (treatment-related TEAE, all grades): 0 n (%)
  Nausea (treatment-related TEAE, all grades): 2 (50) n (%)
  Vomiting (treatment-related TEAE, all grades): 3 (75) n (%)
Schedule II, N = 19
  Anemia (Grade 3 or 4 treatment-related TEAE): 0 n (%)
  ECG QTcF prolonged (Grade 3 or 4 treatment-related TEAE): 1 (5) n (%)
  Fatigue (Grade 3 or 4 treatment-related TEAE): 1 (5) n (%)
  Hypophosphatemia (Grade 3 or 4 treatment-related TEAE): 1 (5) n (%)
  Nausea (Grade 3 or 4 treatment-related TEAE): 1 (5) n (%)
  Platelet count decreased (Grade 3 or 4 treatment-related TEAE): 1 (5) n (%)
  Sinus bradycardia (Grade 3 or 4 treatment-related TEAE): 1 (5) n (%)
Schedule II, Total, N = 19
  Any TEAE (treatment-related, all grades): 13 (68) n (%)
  Diarrhea (treatment-related TEAE, all grades): 8 (42) n (%)
  Dysgeusia (treatment-related TEAE, all grades): 2 (11) n (%)
  ECG QTcF prolonged (treatment-related TEAE, all grades): 3 (16) n (%)
  Fatigue (treatment-related TEAE, all grades): 2 (11) n (%)
  Hypophosphatemia (treatment-related TEAE, all grades): 2 (11) n (%)
  Nausea (treatment-related TEAE, all grades): 3 (16) n (%)
  Vomiting (treatment-related TEAE, all grades): 4 (21) n (%)
Schedule II, all patients
  QTcF (Fridericia method) prolongation, treatment-related TEAE: 16%
  diarrhea, treatment-related TEAE: 42%
  dysgeusia, treatment-related TEAE: 11%
  fatigue, treatment-related TEAE: 11%
  hypophosphatemia, treatment-related TEAE: 11%
  nausea, treatment-related TEAE: 16%
  vomiting, treatment-related TEAE: 21%
Schedule II, highest dose level tested
  subjects with treatment related AEs (all grades): 100%
Schedule II, lowest dose level tested
  subjects with treatment related AEs (all grades): 20%
Both schedules
  patients who experienced an AE characterized as a DLT: 6 patients
  subjects reporting treatment related AEs (all grades): 63 subjects
  subjects who reported grade 3 treatment related AEs: 12 subjects
In vivo
  ocular adverse event: One event of Grade 3 ocular papilledema was reported, without loss in visual acuity

Reference: US20240043928A1, “BIOMARKERS FOR MYELODYSPLASTIC SYNDROME (MDS) AND METHODS OF USING THE SAME” (Eisai R&D Management Co., Ltd., priority 2020, published 2024)
